The assay concerns the target truncated Polθ protein (Polθ-Hel containing the helicase domain (67-894)) (Homo sapiens (Human), UniProt O75417). Kind of assay: Polθ ATPase assay (Biological Assay 1, ADP-Glo luminescence). In kind it is biochemical. The protocol:
The Polθ ATPase assay was used to evaluate inhibitors of Polθ ATPase activity, in vitro. Experiments were performed using a truncated Polθ protein (Polθ-Hel containing the helicase domain (67-894), ATP and a DNA single strand Oligo (5′-CTGTCCTGCATGATG-3′) in the Polθ assay buffer (20 mM Tris-HCl (pH 8.8), MgCl2 5 mM, tween20 0.01%, NP40 0.01%, BSA 0.01%, DTT 1 mM). 2 μL of assay buffer containing Polθ-Hel protein (0.5 nM) and DNA substrate (500 nM) was transferred into assay ready plates, containing 0.04 μL of compounds diluted in DMSO. After a 30 minutes incubation at 23° C. in the dark, the reaction was triggered by adding 2 μL of ATP (60 μM), in assay buffer. After 60 minutes at 23° C., 4 μl of ADP-Glo™ Reagent (Glo 1) was added followed by 40 minutes of incubation, then 8 μl of ADP-Glo™ kinase Detection Reagent (Glo 2) followed by 60 minutes of incubation at 23° C. Luminescence was then measured using Tecan F200 infinite plate reader. Raw data were analysed using GeneData to generate IC50 values.
The Polθ ATPase assay described in Biological Assay 1 above was used to evaluate inhibitors of Polθ ATPase activity for the compounds described in the Experimental Part B above, in vitro.
(In ADP-Glo the light output rises with the ADP produced.)

[1] abbreviates: Table A, Polθ-Hel 0.5 nM, DNA substrate 500 nM, ATP 60 μM.

Some results are limits rather than exact numbers.

truncated Polθ protein (Polθ-Hel containing the helicase domain (67-894)), sequence (O75417 67-894): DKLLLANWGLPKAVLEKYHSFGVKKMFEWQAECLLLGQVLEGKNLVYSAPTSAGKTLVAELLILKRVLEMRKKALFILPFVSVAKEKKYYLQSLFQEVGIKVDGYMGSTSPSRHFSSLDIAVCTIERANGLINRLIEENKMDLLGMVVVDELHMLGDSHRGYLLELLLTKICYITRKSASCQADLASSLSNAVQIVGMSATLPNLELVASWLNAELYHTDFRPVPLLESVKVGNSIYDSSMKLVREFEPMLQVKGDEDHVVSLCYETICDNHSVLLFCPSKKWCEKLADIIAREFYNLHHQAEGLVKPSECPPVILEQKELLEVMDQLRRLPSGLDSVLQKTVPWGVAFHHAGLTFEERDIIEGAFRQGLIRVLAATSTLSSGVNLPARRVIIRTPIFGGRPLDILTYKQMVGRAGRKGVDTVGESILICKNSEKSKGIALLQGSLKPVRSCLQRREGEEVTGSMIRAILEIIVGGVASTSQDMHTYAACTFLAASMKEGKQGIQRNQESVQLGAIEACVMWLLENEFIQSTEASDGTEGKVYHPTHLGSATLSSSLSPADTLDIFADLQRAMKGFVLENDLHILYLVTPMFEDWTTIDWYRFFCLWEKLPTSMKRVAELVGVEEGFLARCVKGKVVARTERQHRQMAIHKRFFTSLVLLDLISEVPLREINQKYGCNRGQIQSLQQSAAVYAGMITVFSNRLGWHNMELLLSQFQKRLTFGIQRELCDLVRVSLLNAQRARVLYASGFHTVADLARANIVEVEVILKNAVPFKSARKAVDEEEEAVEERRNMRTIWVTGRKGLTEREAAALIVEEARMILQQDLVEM

As usually defined, the IC50 is the concentration at which inhibition is half-maximal. Low values mean greater potency, high ones weaker potency. Under setting [1], `COc1cnc(Cl)cc1-c1cc(C)ncc1C(=O)Nc1nc2ccc(I)cc2s1` [Example 4, 2′-chloro-N-(6-iodo-1,3-benzothiazol-2-yl)-5′-methoxy-6-methyl-[4,4′-bipyridine]-3-carboxamide] came in with an IC50 of less than 100 nM.
The molecule `COc1ccccc1-c1cnccc1C(=O)Nc1nc2ccccc2s1` [Example 15, N-(1,3-benzothiazol-2-yl)-3-(2-methoxyphenyl) pyridine-4-carboxamide] returned a 50% inhibitory concentration (IC50) under setting [1] of more than 1000 nM.
Same read-out and setting: the same measure for `COc1cnc(Cl)cc1-c1cc(C)ncc1C(=O)Nc1nc2cnc(N3CCC(O)CC3)cc2s1` [Example 68, 2′-chloro-N-[6-(4-hydroxypiperidin-1-yl)-[1,3]thiazolo[4,5-c]pyridin-2-yl]-5′-methoxy-6-methyl-[4,4′-bipyridine]-3-carboxamide]: less than 100 nM.
`COc1cnc(Cl)cc1-c1cc(C)ncc1C(=O)Nc1nc2cnc(N3CC(OC)C3)cc2s1` [Example 129, 2′-chloro-5′-methoxy-N-[6-(3-methoxyazetidin-1-yl)-[1,3]thiazolo[4,5-c]pyridin-2-yl]-6-methyl-[4,4′-bipyridine]-3-carboxamide] showed an IC50 (Table B (Part B compounds), same assay as Biological Assay 1) of less than 100 nM.

The values are drawn from patent publication US12145945B2, “Compounds, compositions, and therapeutic uses thereof” (Breakpoint Therapeutics GmbH, priority 2023, dated 2024).
